Experimental data from PMC9952520, “Anti-Biofilm Effects of Rationally Designed Peptides against Planktonic Cells and Pre-Formed Biofilm of Pseudomonas aeruginosa” (Antibiotics, 2023).
Ends that are not written are not given here.

Legend:
[1] = tested on: planktonic P. aeruginosa ATCC 27853; assay: Growth inhibition of planktonic cells in BHI; assay type: cell-based, Pseudomonas aeruginosa; conditions: BHI broth, 24 h at 37 °C, OD600
Description: (§1) To investigate the growth inhibition of peptides and antibiotics against planktonic P. aeruginosa cells, a microdilution assay was applied. […] After 24 h incubation at 37 °C with agitation, the growth inhibition was calculated by the absorbance measurement of bacterial turbidity at 600 nm using a Microplate Reader (SpectraMax M5, Molecular Devices, Sunnyvale, CA, USA). The assay was performed in triplicate. The percentage of […] was calculated as follows:Growth inhibition (%) = 100 − ((OD600 in sample treatment − OD600 in untreated bacteria)/(OD600 in untreated sample − OD600 in untreated bacteria) × 100) Sample treatment: adding peptides or antibiotics in bacterial suspensions; untreated bacteria: culture medium without bacteria and samples; untreated sample: bacterial suspension without samples.

planktonic DRPa 4007 = assay: Growth inhibition of planktonic cells in BHI; assay type: cell-based, Pseudomonas aeruginosa; conditions: BHI broth, 24 h at 37 °C, OD600
Description: as §1

[2] = tested on: Drug-Sensitive P. aeruginosa (ATCC 27853); assay: microbe, parasite or virus in culture; assay type: cell-based, Pseudomonas aeruginosa; conditions: microdilution, 10 mM sodium phosphate pH 7.2 + 20% MH broth, 24 h at 37 °C, turbidity OD600, triplicate
Description: (§2) Pseudomonas aeruginosa ATCC 27853 (drug-sensitive strain) was obtained from the American Type Culture Collection and drug-resistant P. aeruginosa (DRPa)-3904, 4830, 4891, 4007, and 5018 were isolated from patients with otitis media in a hospital. DRPa strains were obtained from GC Lab (Yongin-Si, Gyeonggi-do, Korea) for identification and antibiotic susceptibility testing. All strains were grown in a Mueller–Hinton (MH) broth containing 0.5% NaCl under an aerobic condition at 37 °C.
(§3) Pregrown bacteria were suspended in 10 mM sodium phosphate (SP, pH 7.2) supplemented with 20% MH broth. Evaluation of antibacterial effects in variable ionic strengths was performed with the following buffers: 10 mM HEPES, 10 mM NaCl, pH 7.4 + 10% MH (buffer I), 10 mM HEPES, 150 mM NaCl, pH 7.4 + 10% MH (buffer II), 10 mM HEPES, 5 mM MgCl2, pH 7.4 + 10% MH (buffer III), and 10 mM HEPES, 150 mM NaCl, 5 mM MgCl2, pH 7.4 + 10% MH (buffer IV). Fifty µL of the cell suspension (1 × 10^6 colony forming unit (CFU)/mL) was added to fifty µL of two-fold serially diluted peptide solutions and antibiotics (0.125–256 µM), followed by incubation for 24 h at 37 °C. The positive growth control was bacterial suspension without peptides and antibiotics and the negative control was only medium. MICs were evaluated by measuring the turbidity of cell solutions at OD600 and were defined as the lowest concentration of peptide or antibiotics that inhibited visible bacterial growth. The assays were performed in triplicate.

[3] = tested on: Drug-Resistant P. aeruginosa (DRPa) 4830; assay: microbe, parasite or virus in culture; assay type: cell-based, Pseudomonas aeruginosa; conditions: microdilution, 10 mM sodium phosphate pH 7.2 + 20% MH broth, 24 h at 37 °C, OD600, triplicate
Description: as §2, §3

[4] = tested on: Drug-Resistant P. aeruginosa (DRPa) 4007; assay: microbe, parasite or virus in culture; assay type: cell-based, Pseudomonas aeruginosa; conditions: microdilution, 10 mM sodium phosphate pH 7.2 + 20% MH broth, 24 h at 37 °C, OD600, triplicate
Description: as §2, §3

[5] = tested on: Drug-Resistant P. aeruginosa (DRPa) 4891; assay: microbe, parasite or virus in culture; assay type: cell-based, Pseudomonas aeruginosa; conditions: microdilution, 10 mM sodium phosphate pH 7.2 + 20% MH broth, 24 h at 37 °C, OD600, triplicate
Description: as §2, §3

[6] = tested on: Drug-Resistant P. aeruginosa (DRPa) 3904; assay: microbe, parasite or virus in culture; assay type: cell-based, Pseudomonas aeruginosa; conditions: microdilution, 10 mM sodium phosphate pH 7.2 + 20% MH broth, 24 h at 37 °C, OD600, triplicate
Description: as §2, §3

[7] = tested on: Drug-Resistant P. aeruginosa (DRPa) 5018; assay: microbe, parasite or virus in culture; assay type: cell-based, Pseudomonas aeruginosa; conditions: microdilution, 10 mM sodium phosphate pH 7.2 + 20% MH broth, 24 h at 37 °C, OD600, triplicate
Description: as §2, §3

[8] = tested on: P. aeruginosa DRPa 4007 biofilm; assay: SEM analysis of biofilm on plastic coverslips; assay type: cell-based, Pseudomonas aeruginosa; conditions: peptides 64 µM, ciprofloxacin 256 µM, 24 h on 48 h biofilm
Description: Figure 6 Image analysis of P. aeruginosa DRPa 4007 using scanning electron microscopy (SEM).
DRPa 4007 biofilms were formed on the plastic coverslips (12 mm dimension, SPL life science, Pocheon-si, Korea) for 48 h in BHI broth containing 2% (w/v) sucrose (1 × 10^8 CFU/mL) in a 24-well plate. […] The coverslips were rinsed using SP buffer and prefixed in 50 mM HEPES buffer (pH 8.0) containing 5% (v/v) glutaraldehyde for 2 h. After washing with SP buffer, they were dehydrated using the OTTIX shaper (Diapath S.p.A, Bergamo, Italy) and chemical-dried using hexamethyldisilazane. The coverslips coated with gold were observed under a field emission scanning electron microscopy (JSM-7100F, JEOL Ltd., Tokyo, Japan).

DRPa 4007 biofilm = assay: Inhibition of biofilm formation, crystal violet staining; assay type: cell-based; conditions: Pseudomonas aeruginosa, BHI + 2% sucrose, 24 h at 37 °C, crystal violet OD570, triplicate
Description: (§4) Sucrose was added to enhance bacterial biofilm formation. Unattached bacteria were removed by washing with SP buffer and the remaining biofilm was fixed with methanol for 15 min. After air-drying for 30 min at room temperature, the plate was stained with 0.1% crystal violet (CV) for 5 min, followed by carefully washing with water and adding 95% ethanol to each well. The absorbance of the plate at 570 nm was measured using a Microplate Reader. The experiment was performed in triplicate and the percentage of biofilm inhibition was calculated as follows:Biofilm inhibition (%) = 100 − ((OD570 in sample treatment − OD570 in untreated bacteria)/(OD570 in untreated sample − OD570 in untreated bacteria) × 100) Sample treatment: adding peptides or antibiotics in bacterial suspensions; untreated bacteria: culture medium without bacteria and samples; untreated sample: bacterial suspension without samples.

[9] = tested on: P. aeruginosa ATCC 27853 biofilm; assay: as above; assay type: cell-based, Pseudomonas aeruginosa; conditions: BHI + 2% sucrose, 24 h at 37 °C, crystal violet OD570
Description: as §4

[10] = tested on: Biofilm EPS of P. aeruginosa DRPa 4007; assay: Reduction of biofilm EPS components, fluorescent dyes and fluorescence microscopy; assay type: cell-based, Pseudomonas aeruginosa; conditions: 64 µM, 24 h incubation; FITC-ConA, Nile red, DAPI, SYPRO red
Description: Figure 4 Eliminative action of peptides in biofilm extracellular polymeric substances (EPS). Biofilm EPS of P. aeruginosa DRPa 4007 in the absence or presence of peptides (64 µM) was stained by FITC-ConA for carbohydrates, Nile red for lipids, DAPI for nucleic acids, and SYPRO red for proteins and observed under fluorescence microscopy.
To investigate the eliminating ability of peptide, EPS components were analyzed using fluorescence microplate and microscopic analyses. After following the processes described in Section 3.7, the biofilm was washed with SP buffer and stained using four fluorescent dyes (DAPI for nucleic acids, Nile red for lipids, FITC-ConA for carbohydrates, and SYPRO red for proteins).

[11] = Pseudomonas aeruginosa, ATCC27853

Molecule	MIC [3] [µM]	MIC [4] [µM]	other results
CC(C)(O/N=C(\C(=O)N[C@@H]1C(=O)N2C(C(=O)[O-])=C(C[n+]3ccccc3)CS[C@H]12)c1csc(N)n1)C(=O)O [Ceftazidime]	–	–	growth inhibition of planktonic cells [1]: at very low concentrations; antibacterial activity against planktonic cells (planktonic DRPa 4007): remarkably inhibited; MIC [2, 11]: 1 µM
O=C(O)c1cn(C2CC2)c2cc(N3CCNCC3)c(F)cc2c1=O [Ciprofloxacin]	–	–	growth inhibition of planktonic cells [1]: at very low concentrations; antibacterial activity against planktonic cells (planktonic DRPa 4007): remarkably inhibited; MIC [2, 11]: 1 µM; MIC ([3]; Pseudomonas aeruginosa): 64 µM; MIC ([4]; Pseudomonas aeruginosa): > 256 µM; MIC ([5]; Pseudomonas aeruginosa): > 256 µM; MIC ([6]; Pseudomonas aeruginosa): > 256 µM; MIC ([7]; Pseudomonas aeruginosa): > 256 µM; biofilm and bacteria on coverslip under SEM [8]: massive volume; inhibition at 64 µM (DRPa 4007 biofilm): 2.3%; inhibition of biofilm formation [9]: dose-dependent manner
CC[C@H](C)[C@H](NC(=O)CN)C(=O)NCC(=O)N[C@@H](C)C(=O)N[C@H](C(=O)N[C@@H](CC(C)C)C(=O)N[C@@H](CCCCN)C(=O)N[C@H](C(=O)N[C@@H](CC(C)C)C(=O)N[C@H](C(=O)N[C@H](C(=O)NCC(=O)N[C@@H](CC(C)C)C(=O)N1CCC[C@H]1C(=O)N[C@@H](C)C(=O)N[C@@H](CC(C)C)C(=O)N[C@H](C(=O)N[C@@H](CO)C(=O)N[C@@H](Cc1c[nH]c2ccccc12)C(=O)N[C@H](C(=O)N[C@@H](CCCCN)C(=O)N[C@@H](CCCNC(=N)N)C(=O)N[C@@H](CCCCN)C(=O)N[C@@H](CCCNC(=N)N)C(=O)N[C@@H](CCC(N)=O)C(=O)N[C@@H](CCC(N)=O)C(N)=O)[C@@H](C)CC)[C@@H](C)CC)[C@@H](C)O)[C@@H](C)O)C(C)C)C(C)C [Melittin]	4	4	MIC [2]: 2 µM; MIC [5]: 4 µM; MIC [6]: 2 µM; MIC [7]: 4 µM; removal of EPS components (carbohydrates, lipids, DNA, proteins) [10]: did not remove carbohydrates
NC[C@H]1O[C@H](O[C@H]2[C@H](O)[C@@H](O[C@H]3O[C@H](CO)[C@@H](O)[C@H](N)[C@H]3O)[C@H](N)C[C@@H]2N)[C@H](N)C[C@@H]1O [Tobramycin]	–	–	MIC [2, 11]: 0.25 µM
Cc1onc(-c2ccccc2)c1C(=O)N[C@@H]1C(=O)N2[C@@H]1SC(C)(C)[C@@H]2C(=O)O [oxacillin]	–	–	inhibition at 64 µM (DRPa 4007 biofilm): 3.4%; inhibition of biofilm formation [9]: dose-dependent manner
KKIIKKIIKKIWKW-NH2 [KIW-14]	2	2	–
KKIIKKIWKW-NH2 [KIW-10]	16	16	–
KKIWKKWIKI-NH2 [KWI-10]	8	8	–
KKIWKKWIKKIIKI-NH2 [KWI-14]	2	1	–
RRIIRRIWRW-NH2 [RIW-10]	16	8	–
RRIWRRWIRI-NH2 [RWI-10]	4	8	–
WIKKIWKKIIKEIK-NH2 [WIKE-14]	8	8	–
WIKKIWKKIIKKIK-NH2 [WIK-14]	2	1	–
WIKKIWKKIK-NH2 [WIK-10]	8	8	–
WIRRIWRRIR-NH2 [WIR-10]	4	2	–
